“Also recorded” adds a separate entry of the source. Where no end group is shown, it is not given here.
Columns and labels:
[1] = tested on: Cardiac myocytes from embryonic chick hearts; assay: Amelioration of ammonium persulfate-induced cell death in cultured cardiac myocytes (Trypan blue exclusion); format: cell-based; conditions: 1 mM ammonium persulfate
Description: Cardiac myocytes from embryonic chick hearts were grown in culture using the procedures described in Rabkin, Exper. Cell. Res. 188:262-266, 1990. Briefly, white Leghorn eggs were incubated in an automatic incubator (March Rollex, Calif., USA) for 7 days at 37.8° C. and 87% humidity. Hearts were then isolated under sterile conditions from the 7-day chick embryo. Blood and connective tissue were removed under a dissecting microscope in a solution of balanced salts (DMS8) with the following composition (mM): NaCl 116, KCl 5.4, NaH2PO4 1 and dextrose 5.6. Disaggregation was carried out by 5-minute digestions in 0.005% trypsin (Gibco Laboratories, Burlington, Ontario), 0.1% BSA and 1×10^7 DNAse per mL, DMS8 (Worthington Biochemicals, Frederic, N.J., USA) at 37° C. After three digestions, the digests were diluted 1:5 in culture medium and the cells centrifuged for three minutes at 1000 g and plated.
The cultured cardiac myocytes were incubated with 1 mM ammonium persulfate for 2 hours at 37° C. to induce oxidative damage. Cell viability was assessed by Trypan blue exclusion. Six samples containing cells were then incubated with 0.0, 0.000375, 0.00375, 0.0375, 0.375 and 37.5 μM streptokinase (Hoechts-Roussel Pharmaceuticals), respectively, and 0.0, 0.000246, 0.00246, 0.0246, 0.246 and 24.6 μM plasminogen, respectively (see Table 1), for 1-2 hours at 37° C. and assessed by Trypan blue exclusion.
Control cell samples were treated with 1 mM ammonium persulfate in the absence of streptokinase (STK) and plasminogen under the same conditions.
The results are described in Table 1 in terms of the percent cell death induced by ammonium persulfate. The data represents the mean of six (6) duplicate determinations, none of which differed by more than 5%.
Each of the nineteen (19) resulting fractions was tested for the peptide's ability to ameliorate cell death according to the assay described in Example 1. The data in Table 2 represent the mean of duplicate determinations. None of the determinations differed by more than 5%.
Based on the sequences identified in Example 2, peptides were synthesized using a commercially available automated synthesizer (Applied Biosystems 430 A Peptide Synthesizer), purified by and tested according to the assay described in Example 1 for their ability to ameliorate cell death in cardiac myocytes. The sequences for these peptides were:
Table 3 presents the percentage of dead cells as measured by Trypan blue assessment as described in Example 1.

[2] = tested on: Spinal cord cells isolated from embryonic chicks; assay: Amelioration of ammonium persulfate-induced cell death in spinal cord cells (trypan blue); format: cell-based, chick; conditions: 1 mM ammonium persulfate for 1 or 2 hours; 10 μg/ml or 20 μg/ml peptide; versus control
Description: Spinal cord cells isolated from embryonic chicks were grown in culture for 5-7 days. Chick spinal cord cells were cultured as described briefly as follows. Cell cultures were prepared from 7-day chick embryo. Ventral portions of spinal cord were dissected free of meninges and dorsal root ganglia and diced into small pieces in Dulbecco's phosphate-buffered saline (PBS). Tissue fragments were incubated in PBS with 0.25% trypsin and 20 μg/ml DNase for 30 min at 36° C. Trypsin was inactivated by the addition of horse serum and cells were dissociated by gentle pipetting.
Isolated cells were washed, resuspended in medium and plated onto plastic coverslips in petri dishes. The medium consisted of Eagle's minimum essential medium (MEM), 10% fetal bovine serum (FBS), 5 mg/ml D-glucose and 25 μg/ml gentamycin. Cells were grown in an incubator with 5% CO2/95% air at 37° C. and the medium was renewed twice a week. Cells were used for experiment after 14 days.
Both the experimental and control cultures were treated with 1 mM ammonium persulfate for 1 or 2 hours at 37° C. The experimental cultures were treated with either 10 μg/ml or 20 μg/ml of the 20 mer peptide (SEQ ID NO: 6) for the same length of time. The number of dead cells, assayed by trypan blue, in the experimental groups was compared to that in the control group.

M07E = assay: Serum-deprivation-induced cell death, 3H-thymidine incorporation, M07E; format: cell-based, human; conditions: M07E starved 30 hours, 20 μg/ml, then washed, IL-3 for 22 hours; control 2,003 ± 468
Description: (§1) Cells in the latter group were washed free of the 20 mer (SEQ. ID NO. 6), given saturating concentrations of growth factor (5 ng/ml of human interleukin-3) and incubated for an additional 22 hours. After the 22 hours, 1 μCi of ^3H-thymidine (2 Ci/mmol) was added and, after 2 hours, the cellular contents were harvested onto filtermats. Then ^3H-thymidine incorporation was measured using an LKB Betaplate Harvester and liquid scintillation counter. Note the increased viability of cells treated with the 20 mer peptide (SEQ ID NO: 6).

TF-1 = assay: Serum-deprivation-induced cell death, 3H-thymidine incorporation, TF-1; format: cell-based, human; conditions: TF-1 starved 30 hours, 20 μg/ml, then washed, IL-3 for 22 hours; control 14,728 ± 2,825
Description: as §1

[3] = reverse phase HPLC fractions of streptokinase incubated 1:1 with plasminogen

## EVTEEEETVPLKThE-AMIDE [Irrelevant #3, reference compound]
[1]; Peptide Concentration 5 μM
  percentage of dead cells: 79.5%
[1]; Peptide Concentration 20 μM
  percentage of dead cells: 81.1%

## NFLRGKLKLYTGEACRTGDR [Irrelevant #1, irrelevant peptide utilized as negative control, reference compound]
[1]; Peptide Concentration 5 μM
  percentage of dead cells: 77.1%
[1]; Peptide Concentration 20 μM
  percentage of dead cells: 67.6%

## RLILDSRVLERYLLEAKEAE [Irrelevant #2, irrelevant peptide utilized as negative control, reference compound]
[1]; Peptide Concentration 5 μM
  percentage of dead cells: 77.4%
[1]; Peptide Concentration 20 μM
  percentage of dead cells: 76.1%

## SVDVEY [6 mer #1]
[1]; Peptide Concentration 5 μM
  percentage of dead cells: 51.9%
[1]; Peptide Concentration 20 μM
  percentage of dead cells: 36.8%

## SVDVEYTQFTDFRGKLTKLL [20 mer]
[1]; Peptide Concentration 5 μM
  percentage of dead cells: 47.6%
[1]; Peptide Concentration 10 μM
  percentage of dead cells: 35.4%
[1]; Peptide Concentration 15 μM
  percentage of dead cells: 31.6%
[1]; Peptide Concentration 20 μM
  percentage of dead cells: 23.1%
[1]; Peptide Concentration 20 μM, listed as 20mer
  percentage of dead cells: ~20%
[2]
  survival of spinal cord cells (number of dead cells, trypan blue): dramatically enhanced cell survival; also recorded: almost completely prevented cell death
M07E
  3H-THYMIDINE COUNTS (COUNTS PER MINUTE): 4,282 ± 212 COUNTS PER MINUTE
TF-1
  3H-THYMIDINE COUNTS (COUNTS PER MINUTE): 32,701 ± 5,565 COUNTS PER MINUTE

## SVDVEYTVQFTPLNPDDD [18 mer]
[1]; Peptide Concentration 20 μM
  percentage of dead cells: 54.4%

## SVDVEYTVQFTPLNPDDDFRP [fraction 13]
[1]; [3]
  Cell Death (%): 39%

## Streptokinase [reference compound]
[1]; 0.000375 μM streptokinase with 0.000246 μM plasminogen, control 81
  Cell Death (%): 50%
[1]; 0.00375 μM streptokinase with 0.00246 μM plasminogen, control 81
  Cell Death (%): 37%
[1]; 0.0375 μM streptokinase with 0.0246 μM plasminogen, control 81
  Cell Death (%): 29%
[1]; 0.375 μM streptokinase with 0.246 μM plasminogen, control 81
  Cell Death (%): 25%
[1]; 37.5 μM streptokinase with 24.6 μM plasminogen, control 81
  Cell Death (%): 16%

## YVDVDT [6 mer #2]
[1]; Peptide Concentration 5 μM
  percentage of dead cells: 37.0%
[1]; Peptide Concentration 20 μM
  percentage of dead cells: 25.4%

## YVDVDTNELLK [11 mer]
[1]; Peptide Concentration 5 μM
  percentage of dead cells: 38.6%

## YVDVDTNELLKSEQLLTASE [fraction 12]
[1]; [3]
  Cell Death (%): 29%

— US6841532B2, “Peptides and their use to ameliorate cell death” (priority 1995, dated 2005)
